The values that follow come from patent US20240327393A1 (SIRONAX LTD., priority 2021, published 2024).

This experiment has as its system HT-1080 (ATCC, CCL-121) cells. In words: HT-1080 cell viability assay with ferroptosis inducer RSL3 (Cell Titer-Glo). In kind it is cell-based. To be noted: Homo sapiens; HT-1080 cells treated with RSL3; 3-fold, 10-point dilution, 1.1 μM highest concentration; Table 2; read-out: EC50 (nM), ferroptosis inhibitory activity. As to the method:
Example 2. Determination of EC50 Values in HT-1080 Cell Viability Assay
HT-1080 (ATCC, CCL-121) cells (6000 in 100 μl) were seeded in 96-well plates (Corning) and cultured in a 37° C. incubator with a humidified atmosphere of 5% CO2 for overnight. Cells were then treated with ferroptosis inducer RSL3 (TargetMol) and a 3-fold, 10-point serial dilution series of compounds with 1.1 μM as the highest concentration, […]. Cell viability was assessed using the Cell Titer-Glo Kit (Promega). The luminescence intensity was measured with a microplate reader (Envision, PerkinElmer), and cell viability was calculated by normalizing the data to untreated controls. The EC50 values of the compounds (e.g., Compounds 1-659) were calculated in GraphPad Prism (GraphPad Software, Inc., San Diego, CA, USA). The curves were fitted using a non-linear regression model with a sigmoidal dose response.
For orientation: ATP-based viability assays read luminescence as a measure of living cells.
`Cc1cc(Nc2ccc3c(c2)OCC(=O)N3)cnc1N1C[C@H](C)O[C@@H](C)C1` (stereo in doubt) [Compound 152, 7-((6-(2,6-dimethylmorpholino)-5-methylpyridin-3-yl)amino)-2H-benzo[b][1,4]oxazin-3(4H)-one]: the EC50 lay in the range of 100 to 1000 nM. In the case of `CC1CCN(c2ccc(Nc3ccc4c(c3)OCC(=O)N4C)cc2)CC1` [Compound 1, 4-methyl-7-((4-(4-methylpiperidin-1-yl)phenyl)amino)-2H-benzo[b][1,4]oxazin-3(4H)-one] it was 0.1 to 100 nM; in that of `CN1C(=O)COc2cc(Nc3ccc(N4CCC(C(F)(F)F)CC4)cc3)ccc21` [Compound 2, 4-methyl-7-((4-(4-(trifluoromethyl)piperidin-1-yl)phenyl)amino)-2H-benzo[b][1,4]oxazin-3(4H)-one], 0.1 to 100 nM; in that of `CN1C(=O)CCOc2cc(Nc3ccc(N4CCC(C(F)(F)F)CC4)cc3)ccc21` [Compound 3, 5-methyl-8-((4-(4-(trifluoromethyl)piperidin-1-yl)phenyl)amino)-2,3-dihydrobenzo[b][1,4]oxazepin-4(5H)-one], 0.1 to 100 nM. `CCCCCN(CCCCOC)c1ccc(Nc2ccc3c(c2)OCC(=O)N3C)cc1` [Compound 4, 7-((4-((4-methoxybutyl)(pentyl)amino)phenyl)amino)-4-methyl-2H-benzo[b][1,4]oxazin-3(4H)-one]: the EC50 was 0.1 to 100 nM.

Consider `CCCCOc1ccc(Nc2ccc3c(c2)OCC(=O)N3C)cc1` [Compound 5, 7-((4-butoxyphenyl)amino)-4-methyl-2H-benzo[b][1,4]oxazin-3(4H)-one], for which the half-maximal effective concentration (EC50) was in the range of 0.1 to 100 nM.

As for `CCCCCc1ccc(Nc2ccc3c(c2)OCC(=O)N3C)cc1` [Compound 6, 4-methyl-7-((4-pentylphenyl)amino)-2H-benzo[b][1,4]oxazin-3(4H)-one], the EC50 is 0.1 to 100 nM. Consider `CN1C(=O)COc2cc(Nc3ccc(OC4CCCCC4)cc3)ccc21` [Compound 7, 7-((4-(cyclohexyloxy)phenyl)amino)-4-methyl-2H-benzo[b][1,4]oxazin-3(4H)-one], for which the EC50 is 0.1 to 100 nM. With `CCCOc1cc(Nc2ccc3c(c2)OCC(=O)N3C)ccc1N1CCC(C(F)(F)F)CC1` [Compound 8, 4-methyl-7-((3-propoxy-4-(4-(trifluoromethyl)piperidin-1-yl)phenyl)amino)-2H-benzo[b][1,4]oxazin-3(4H)-one], the concentration for a half-maximal effect (EC50) was in the range of 0.1 to 100 nM. In the case of `COC1(C(F)(F)F)CCN(c2ccc(Nc3ccc4c(c3)OCC(=O)N4C)cc2)CC1` [Compound 9, 7-((4-(4-methoxy-4-(trifluoromethyl)piperidin-1-yl)phenyl)amino)-4-methyl-2H-benzo[b][1,4]oxazin-3(4H)-one] it was 0.1 to 100 nM; in that of `COCCCN1C(=O)COc2cc(Nc3ccc(N4CCC(C(F)(F)F)CC4)cc3)ccc21` [Compound 10, 4-(3-methoxypropyl)-7-((4-(4-(trifluoromethyl)piperidin-1-yl)phenyl)amino)-2H-benzo[b][1,4]oxazin-3(4H)-one], 0.1 to 100 nM. In the case of `COCCN1C(=O)COc2cc(Nc3ccc(N4CCC(C(F)(F)F)CC4)cc3)ccc21` [Compound 11, 4-(2-methoxyethyl)-7-((4-(4-(trifluoromethyl)piperidin-1-yl)phenyl)amino)-2H-benzo[b][1,4]oxazin-3(4H)-one] it was 0.1 to 100 nM; in that of `CCCCOc1ccc(Nc2ccc3c(c2)OCC(=O)N3C)cn1` [Compound 12, 7-((6-butoxypyridin-3-yl)amino)-4-methyl-2H-benzo[b][1,4]oxazin-3(4H)-one], 0.1 to 100 nM. In the case of `CN1C(=O)COc2cc(Nc3ccc(OCCCF)cc3)ccc21` [Compound 13, 7-((4-(3-fluoropropoxy)phenyl)amino)-4-methyl-2H-benzo[b][1,4]oxazin-3(4H)-one] it was 0.1 to 100 nM; in that of `NC(=O)CN1C(=O)COc2cc(Nc3ccc(N4CCC(C(F)(F)F)CC4)cc3)ccc21` [Compound 14, 2-(3-oxo-7-((4-(4-(trifluoromethyl)piperidin-1-yl)phenyl)amino)-2,3-dihydro-4H-benzo[b][1,4]oxazin-4-yl)acetamide], 0.1 to 100 nM; in that of `NC(=O)CCN1C(=O)COc2cc(Nc3ccc(N4CCC(C(F)(F)F)CC4)cc3)ccc21` [Compound 15, 3-(3-oxo-7-((4-(4-(trifluoromethyl)piperidin-1-yl)phenyl)amino)-2,3-dihydro-4H-benzo[b][1,4]oxazin-4-yl)propanamide], 0.1 to 100 nM. `CCN1C(=O)COc2cc(Nc3ccc(N4CCC(C(F)(F)F)CC4)cc3)ccc21` [Compound 16, 4-ethyl-7-((4-(4-(trifluoromethyl)piperidin-1-yl)phenyl)amino)-2H-benzo[b][1,4]oxazin-3(4H)-one]: the concentration for a half-maximal effect (EC50) was in the range of 0.1 to 100 nM. In the case of `CN1C(=O)COc2cc(Nc3ccc(N4CCC(C(F)(F)F)CC4)nc3)ccc21` [Compound 17, 4-methyl-7-((6-(4-(trifluoromethyl)piperidin-1-yl)pyridin-3-yl)amino)-2H-benzo[b][1,4]oxazin-3(4H)-one] it was 0.1 to 100 nM; in that of `CC(C)(C)C(=O)N1CCOc2cc(Nc3ccc(N4CCC(C(F)(F)F)CC4)cc3)ccc21` [Compound 18, 2,2-dimethyl-1-(7-((4-(4-(trifluoromethyl)piperidin-1-yl)phenyl)amino)-2,3-dihydro-4H-benzo[b][1,4]oxazin-4-yl)propan-1-one], 0.1 to 100 nM. In the case of `CNc1cc(Nc2ccc3c(c2)OCC(=O)N3C)ccc1N1CC(C)OC(C)C1` (centres unmarked) [Compound 19, 7-((4-(2,6-dimethylmorpholino)-3-(methylamino)phenyl)amino)-4-methyl-2H-benzo[b][1,4]oxazin-3(4H)-one] it was 0.1 to 100 nM; in that of `CC1CN(c2ccc(Nc3ccc4c(c3)OCC(=O)N4C)cc2N(C)C)CC(C)O1` (centres unmarked) [Compound 20, 7-((3-(dimethylamino)-4-(2,6-dimethylmorpholino)phenyl)amino)-4-methyl-2H-benzo[b][1,4]oxazin-3(4H)-one], 0.1 to 100 nM. In the case of `CN1C(=O)COc2cc(Nc3ccc(N4CC5(CCC5)C4)cc3)ccc21` [Compound 21, 7-((4-(2-azaspiro[3.3]heptan-2-yl)phenyl)amino)-4-methyl-2H-benzo[b][1,4]oxazin-3(4H)-one] it was 0.1 to 100 nM; in that of `CCN(CC)c1ccc(Nc2ccc3c(c2)OCC(=O)N3C)cc1` [Compound 22, 7-((4-(diethylamino)phenyl)amino)-4-methyl-2H-benzo[b][1,4]oxazin-3(4H)-one], 0.1 to 100 nM. `CN1C(=O)COc2cc(Nc3ccc(N4CCC(CF)CC4)cc3)ccc21` [Compound 23, 7-((4-(4-(fluoromethyl)piperidin-1-yl)phenyl)amino)-4-methyl-2H-benz o[b][1,4]oxazin-3(4H)-one]: the EC50 is 0.1 to 100 nM. `CCN1C(=O)COc2cc(Nc3ccc(N4CCC(C(F)(F)F)CC4)nc3)ccc21` [Compound 24, 4-ethyl-7-((6-(4-(trifluoromethyl)piperidin-1-yl)pyridin-3-yl)amino)-2H-benzo[b][1,4]oxazin-3(4H)-one]: the EC50 was in the range of 0.1 to 100 nM. In the case of `CC(C)(C)NC(=O)N1CCOc2cc(Nc3ccc(N4CCC(C(F)(F)F)CC4)cc3)ccc21` [Compound 25] it was 0.1 to 100 nM; in that of `Cc1nc(N2CCC(C(F)(F)F)CC2)ccc1Nc1ccc2c(c1)OCC(=O)N2C` [Compound 26, 4-methyl-7-((2-methyl-6-(4-(trifluoromethyl)piperidin-1-yl)pyridin-3-yl)amino)-2H-benzo[b][1,4]oxazin-3(4H)-one], 0.1 to 100 nM. In the case of `CN1C(=O)COc2cc(Nc3cnc(N4CCC(C(F)(F)F)CC4)c(F)c3)ccc21` [Compound 27, 7-((5-fluoro-6-(4-(trifluoromethyl)piperidin-1-yl)pyridin-3-yl)amino)-4-methyl-2H-benzo[b][1,4]oxazin-3(4H)-one] it was 0.1 to 100 nM; in that of `CN1C(=O)COc2ccc(Nc3ccc(N4CCC(C(F)(F)F)CC4)cc3)cc21` [Compound 28, 4-methyl-6-((4-(4-(trifluoromethyl)piperidin-1-yl)phenyl)amino)-2H-benzo[b][1,4]oxazin-3(4H)-one], 0.1 to 100 nM. In the case of `CN1C(=O)COc2cc(Nc3ccc(N4CCCCC4)cc3)ccc21` [Compound 29] it was 0.1 to 100 nM; in that of `CCCCCN(CC)c1ccc(Nc2ccc3c(c2)OCC(=O)N3C)cc1` [Compound 30, 7-((4-(ethyl(pentyl)amino)phenyl)amino)-4-methyl-2H-benzo[b][1,4]oxazin-3(4H)-one], 0.1 to 100 nM; in that of `CCN(CCCOC)c1ccc(Nc2ccc3c(c2)OCC(=O)N3C)cc1` [Compound 31, 7-((4-(ethyl(3-methoxypropyl)amino)phenyl)amino)-4-methyl-2H-benzo[b][1,4]oxazin-3(4H)-one], 0.1 to 100 nM.

For `CCCCCOc1ccc(Nc2ccc3c(c2)OCC(=O)N3C)cc1OC` [Compound 32, 7-((3-methoxy-4-(pentyloxy)phenyl)amino)-4-methyl-2H-benzo[b][1,4]oxazin-3(4H)-one], the EC50 is 0.1 to 100 nM. For the molecule `CN1C(=O)COc2cc(Nc3ccc(F)c(N4CCC(C(F)(F)F)CC4)c3)ccc21` [Compound 33, 7-((4-fluoro-3-(4-(trifluoromethyl)piperidin-1-yl)phenyl)amino)-4-methyl-2H-benzo[b][1,4]oxazin-3(4H)-one], the EC50 was 0.1 to 100 nM.

On to `CN1C(=O)COc2cc(Nc3ccc(N4CCC(C(F)(F)F)CC4)cc3F)ccc21` [Compound 34, 7-((2-fluoro-4-(4-(trifluoromethyl)piperidin-1-yl)phenyl)amino)-4-methyl-2H-benzo[b][1,4]oxazin-3(4H)-one], for which the EC50 fell in the range of 100 to 1000 nM.

What is called EC50 is the concentration that produces a half-maximal response.
